Drawing on patent US7960408B2, “Quinolinyl and benzothiazolyl modulators” (Amgen Inc., priority 2000, dated 2011), this text covers IC50 for 14 compounds.

Some results are limits rather than exact numbers.

What is called IC50 is the point on the concentration scale where inhibition reaches its midpoint. Low values mean higher potency, high ones lower potency.

In this assay the target is T1, PPARγ (Homo sapiens, UniProt P37231).
T1 construct: made in house
T1 sequence (P37231 1-505): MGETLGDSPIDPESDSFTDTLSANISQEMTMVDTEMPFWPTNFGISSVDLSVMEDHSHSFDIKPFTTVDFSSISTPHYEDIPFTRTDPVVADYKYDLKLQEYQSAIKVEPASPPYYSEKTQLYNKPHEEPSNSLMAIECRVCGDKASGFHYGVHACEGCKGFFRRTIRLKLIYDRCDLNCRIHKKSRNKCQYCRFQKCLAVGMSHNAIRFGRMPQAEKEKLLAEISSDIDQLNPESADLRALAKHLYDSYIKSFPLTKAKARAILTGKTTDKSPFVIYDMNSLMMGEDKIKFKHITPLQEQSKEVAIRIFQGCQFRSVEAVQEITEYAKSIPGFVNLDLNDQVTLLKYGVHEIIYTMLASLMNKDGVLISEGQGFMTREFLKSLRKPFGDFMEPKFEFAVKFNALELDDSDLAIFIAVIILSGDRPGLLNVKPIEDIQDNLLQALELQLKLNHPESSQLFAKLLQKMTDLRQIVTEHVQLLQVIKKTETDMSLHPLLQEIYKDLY
Kind of assay: PPARγ ligand binding assay utilizing [3H]-BRL 49653 as the radioligand. To be noted: concentration required to reduce by 50% the specific binding of [3H]-BRL 49653. The source says: The compounds of the present invention can be evaluated for modulation of the PPARγ receptor using assays such as those described in Jiang, et al., Nature 391:82-86 (1998), Ricote, et al., Nature 391:79-82 (1998) and Lehmann, et al., J. Biol. Chem. 270(12): 12953-12956 (1995). Alternatively, the compounds can be evaluated for their ability to displace radiolabeled BRL 49653 from a PPARγ-GST fusion protein as follows:
PPARγ-GST fusion protein (prepared according to standard procedures), [^3H]—BRL 49653 having 50 Ci/mmol specific activity, Polyfiltronics Unifilter 350 filtration plate and glutathione-Sepharose® beads (from Pharmacia: washed twice with 10× binding buffer in which BSA and DTI can be left out).
Binding buffer (10 mM Tris-HCl, pH 8.0, 50 mM KCI, 10 mM DTT, 0.02% BSA and 0.01% NP-40) is added in 80-μL amounts to the wells of the filtration plate. The test compound is then added in 10 μL of DMSO. The PPARγ-GST fusion protein and radiolabeled BRL compound are premixed in binding buffer containing 10 mM DTT and added in 10-μL amounts to the wells of the plate to provide final concentrations of 1 μg/well of PPARγ-GST fusion protein and 10 nM [^3H]—BRL 49653 compound. The plate is incubated for 15 min. Glutathione-agarose bead is added in 50 μL of binding buffer, and the plate is vigorously shaken for one hour. The plate is washed four times with 200 μL/well of binding buffer (without BSA and DTT). The bottom of the plate is sealed and 200 μL/well of scintillation cocktail is added. The top of the plate is then sealed and the radioactivity is determined.
IC50 values are defined as the concentration of test compounds required to reduce by 50% the specific binding of [^3H]—BRL 49653 and are represented by (+) <30 μM; (++) <10 μM; (+++) <1 μM.
As to `Cc1cccc2sc(Oc3cc(Cl)cc(NS(=O)(=O)c4ccc(Cl)cc4Cl)c3)nc12` [Compound 294, 2,4-Dichloro-N-[3-chloro-5-(4-methyl-benzothiazol-2-yloxy)-phenyl]-benzenesulfonamide], the IC50 fell in the range of 10000 to 30000 nM.
Consider `COc1ccc2nc(Oc3cc(Cl)cc(NS(=O)(=O)c4ccc(Cl)cc4Cl)c3)sc2c1` [Compound 308, 2,4-Dichloro-N-[3-chloro-5-(6-methoxy-benzothiazol-2-yloxy)-phenyl]-benzenesulfonamide], for which the IC50 is < 1000 nM.
With `Cc1ccc2nc(Oc3cc(Cl)cc(NS(=O)(=O)c4ccc(C(F)(F)F)cc4Cl)c3)sc2c1` [Compound 299, 2-Chloro-N-[3-chloro-5-(6-methyl-benzothiazol-2-yloxy)-phenyl]-4-trifluoromethyl-benzenesulfonamide] the figure was < 1000 nM; with `O=S(=O)(Nc1cc(Oc2nc3cc(Cl)ccc3s2)cc(Oc2nc3cc(Cl)ccc3s2)c1)c1ccc(Cl)cc1Cl` [Compound 323, N-[3,5-Bis-(5-chloro-benzothiazol-2-yloxy)-phenyl]-2,4-dichloro-benzenesulfonamide], 1000 to 10000 nM; with `O=S(=O)(Nc1cc(Cl)c(Cc2cc3ccccc3cn2)c(Cl)c1)c1ccc(C(F)(F)F)cc1Cl` [Compound 237, 2-Chloro-N-(3,5-dichloro-4-isoquinolin-3-ylmethyl-phenyl)-4-trifluoromethyl-benzenesulfonamide], < 1000 nM.
In the case of `CS(=O)(=O)Nc1ccc2nc(Oc3c(Cl)cc(NS(=O)(=O)c4ccc(C(F)(F)F)cc4Cl)cc3Cl)sc2c1` [Compound 440, 2-Chloro-N-[3,5-dichloro-4-(6-methanesulfonylamino-benzothiazol-2-yloxy)-phenyl]-4-trifluoromethyl-benzenesulfonamide], the IC50 is < 1000 nM.
With `Cc1cccc2sc(Oc3cc(Cl)cc(NS(=O)(=O)c4ccc(C(F)(F)F)cc4Cl)c3)nc12` [Compound 293, 2-Chloro-N-[3-chloro-5-(4-methyl-benzothiazol-2-yloxy)-phenyl]-4-trifluoromethyl-benzenesulfonamide] the figure was < 1000 nM; with `Cc1cc(S(=O)(=O)Nc2cc(Cl)cc(Oc3nc4c(Cl)cccc4s3)c2)c(Cl)cc1Cl` [Compound 292, 2,4-Dichloro-N-[3-chloro-5-(4-chloro-benzothiazol-2-yloxy)-phenyl]-5-methyl-benzenesulfonamide], 1000 to 10000 nM; with `Cc1cccc2sc(Oc3ccc(NS(=O)(=O)c4ccc(C(F)(F)F)cc4Cl)cc3Cl)nc12` [Compound 504, 2-Chloro-N-[3-chloro-4-(4-methyl-benzothiazol-2-oxy)-phenyl]-4-trifluoromethylbenzenesulfonamide], 10000 to 30000 nM.
In the case of `O=S(=O)(Nc1cc(Cl)c(Cc2cnc3ccccc3c2)c(Cl)c1)c1ccc(Cl)cc1Cl` [Compound 232, 2,4-Dichloro-N-(3,5-dichloro-4-quinolin-3-ylmethyl-phenyl)-benzenesulfonamide], the IC50 was < 1000 nM.
Turning to `Cc1ccc2nc(Oc3cc(Cl)cc(NS(=O)(=O)c4cc(C)c(Cl)cc4Cl)c3)sc2c1` [Compound 301, 2,4-Dichloro-N-[3-chloro-5-(6-methyl-benzothiazol-2-yloxy)-phenyl]-5-methyl-benzenesulfonamide], the IC50 was < 1000 nM.
Consider `O=S(=O)(Nc1cc(Cl)cc(Oc2nc3ccc(Cl)cc3s2)c1)c1ccc(Cl)cc1Cl` [Compound 303, 2,4-Dichloro-N-[3-chloro-5-(6-chloro-benzothiazol-2-yloxy)-phenyl]-benzenesulfonamide], for which the IC50 was < 1000 nM.
`O=S(=O)(Nc1cc(Cl)c([S+]([O-])c2cnc3ccccc3c2)c(Cl)c1)c1ccc(Cl)cc1Cl` (centres unmarked) [Compound 5.2]: the IC50 was < 1000 nM.
With `O=S(=O)(Nc1cc(Cl)cc(Oc2nc3cc(Cl)ccc3s2)c1)c1ccc(Cl)cc1Cl` [Compound 284, 2,4-Dichloro-N-[3-chloro-5-(5-chloro-benzothiazol-2-yloxy)-phenyl]-benzenesulfonamide] the figure was < 1000 nM.
